Source: patent US3978055A, “Arylamino pyrimidinic derivatives” (priority 1973, dated 1976)

What was measured:
[1] = Lethal doses / percentage mortality; format: in vivo; conditions: in vivo, mouse
From the text: As a result of a comparison between the pharmacologically active doses mentioned above, and the lethal doses listed in the following table XIV, the difference between the doses is sufficiently great to permit the utilisation of the derivatives of formula I in therapeutics.

[2] = tested on: Shay ulcers; assay: Gastric ulcers provoked by tying of the pylorus (Shay ulcers); format: in vivo; conditions: intraduodenal; rat, 50mg/kg/i.d.; read-out: Percentage reduction of shay ulcers
Procedure: The derivatives of formula I, administered by oral means, reduce the extent of gastric ulcers provoked in a rat by tying of the pylorus (Shay ulcers)
Table IV indicated, by way of example, the results obtained by the administration of 50mg/kg/i.d. of different derivatives of formula I.

[3] = tested on: isolated heart of guinea-pig; assay: Augmentation of flow of coronary vessels of isolated heart (vasodilatatory); conditions: Cavia porcellus; 1 μg/ml; read-out: Percentage augmentation of flow of isolated heart of guinea-pig
Procedure: The derivatives of formula I are capable of augmenting the flow of the coronary vessels of this isolated heart of a guinea - pig, when said derivatives are added in the perfusion liquid of said organ.
The percentage augmentation of the flow of the isolated heart of the guinea - pig by adding different derivatives of formula I to the perfusion liquid are given by way of example in the following Table V.

[4] = tested on: arterial pressure of anaesthetised rat; assay: Lowering of arterial pressure of anaesthetised rat (hypotensive properties); format: in vivo; conditions: 1 mg/kg/i.v.
From the text: Administered by intraveinous means to an anaesthetised rat, the derivatives of formula I provoke a lowering of the arterial pressure.
By way of example, the following Table VIII mentions the results obtained by administration of different derivatives of formula I.

[5] = tested on: volume of urine emitted; assay: Augmentation of urinary elimination (diuretic properties); format: in vivo; conditions: po; mouse, 25mg/kg/p.o., 6 hours; read-out: Percentage augmentation of urinary elimination
Procedure: The derivatives of formula I, administered by oral means to the mouse, simultaneously with a volume of 1ml of an isotonic solution of sodium chloride per 25g of the corporeal weight of the mouse, are capable of provoking an augmentation of the volume of urine emitted by reference to control animals, the volume being measured for 6 hours following administration.
The following Table VII indicates, by way of example the percentage augmentation of urinary elimination resulting from the administration of 25mg/kg/p.o. of different derivatives of formula I.

[6] = tested on: painful stretchings caused by phenylbenzoquinone; assay: Analgesic test with phenylbenzoquinone (painful stretchings); format: in vivo; conditions: Mus musculus, po; for inhibition in vivo at 100 mg/kg: read-out: Percentage of diminution of the number of painful stretchings
[7] = tested on: local oedema caused by sub-plantar injection of carraghenine; assay: Sub-plantar oedema caused by carraghenine (antiinflammatory); format: in vivo, rat; conditions: rat, 100 mg/kg/PO; read-out: Percentage reduction of subplantar oedema
From the text: These properties are shown by a diminution of the local oedema caused by the sub-plantar injection of a phlogogenic agent, such as carraghenine, in the rat following the oral administration of derivatives of formula I.

[8] = tested on: number of explorations in the escape enclosure; assay: Number of explorations in the escape enclosure (sedative properties); format: in vivo, mouse; conditions: po; mouse, escape enclosure, 100mg/kg/p.o.; read-out: Percentage diminution of number of explorations

Row | SMILES | mortality ([1]; 2000 mg/kg, 2 000 mg/kg/PO) | inhibition in vivo at 50 mg/kg [2] | change in vivo at 25 mg/kg [5] | other results
1 | Cc1cc(Nc2ccc(C(=O)N3CCOCC3)cc2)nc(-c2ccc3c(c2)OCO3)n1 [72 621] | ~30% | 40% |  | 
2 | CCOC(=O)c1ccc(Nc2cc(C)nc(-c3cccc(C(F)(F)F)c3)n2)cc1 [72 505] | 0% |  |  | activation at 1 µg/mL [3]: 50%
3 | Cc1cc(Nc2ccc(OCCN3CCCCCC3)cc2)nc(-c2ccccc2)n1 [730 379] |  |  |  | mortality ([1]; 625 mg/kg/PO): ~50%
4 | Cc1cc(Nc2ccc(C(=O)N3CCCCC3)cc2)nc(-c2ccc3c(c2)OCO3)n1 [72 687] | 0% | 40% |  | 
5 | Cc1cc(Nc2ccccc2C(=O)OCC2COC(C)(C)O2)nc(-c2cccc(F)c2)n1 (stereo not shown) [72 796] | 0% |  |  | activation at 1 µg/mL [3]: 60%
6 | Cc1cc(Nc2ccc(OCCN3CCOCC3)cc2)nc(-c2ccc3c(c2)OCO3)n1 [730 731] | 0% |  | 37% | Percentage reduction of arterial pressure of anaesthetised rat [4]: 29%; Duration of effect ([4]; hypotensive effect): 30 mn; LD50 ([1]; po, Table IX, read-out: DE 50 (second column; DL 50) (converted)): > 2000 mg/kg; ED50 ([6]; read-out: 105 DE (DE 50)): 27 mg/kg
7 | CCOC(=O)c1ccc(Nc2cc(C)nc(-c3ccc(Cl)cc3)n2)cc1 [72 283] | 0% |  |  | inhibition in vivo at 100 mg/kg [7]: 40%
8 | CCOC(=O)c1ccc(Nc2cc(C)nc(-c3cccc(F)c3)n2)cc1 [72 778] | 0% |  |  | inhibition in vivo at 100 mg/kg [8]: 35%
9 | Cc1cc(Nc2ccccc2C(=O)OCC2COC(C)(C)O2)nc(-c2cccc(C(F)(F)F)c2)n1 (stereo not shown) [72 495, N-[2-(3'trifluoromethylphenyl) -6-methyl-4-pyrimidyl](2",2" -dimethyldioxolan-4"-yl) methyl anthranilate] | 0% |  | 115% | 
10 | Cc1cc(Nc2ccccc2C(=O)OCC2COC(C)(C)O2)nc(-c2ccc3c(c2)OCO3)n1 (stereo not shown) [72 701] | 0% |  | 45% | inhibition in vivo at 100 mg/kg [6]: 45%
11 | Cc1cc(Nc2ccc(OCCN(C)C)cc2)nc(-c2ccccc2)n1 [730 136] | 0% |  |  | inhibition in vivo at 100 mg/kg [6]: 46%
12 | CCOC(=O)c1ccc(Nc2cc(C)nc(-c3ccc4c(c3)OCO4)n2)cc1 [72 613] | 0% | 70% |  | activation at 1 µg/mL [3]: 85%
13 | COc1cc(-c2nc(C)cc(Nc3ccc(C(=O)N4CCN(C)CC4)cc3)n2)cc(OC)c1OC [72 462] | 0% |  |  | inhibition in vivo at 100 mg/kg [6]: 40%; inhibition in vivo at 100 mg/kg [7]: 35%
14 | Cc1cc(Nc2ccc(C(=O)N3CCCC3)cc2)nc(-c2ccc3c(c2)OCO3)n1 [72 623] | 0% |  | 85% | 
15 | Cc1cc(Nc2ccc(OCCN3CCOCC3)cc2)nc(-c2cccc(Cl)c2)n1 [730 695] | 0% |  | 43% | inhibition in vivo at 100 mg/kg [6]: 85%
16 | COc1cc(-c2nc(C)cc(Nc3ccccc3C(=O)OCC3COC(C)(C)O3)n2)cc(OC)c1OC (stereo not shown) [71 510] | 0% | 35% |  | inhibition in vivo at 100 mg/kg [7]: 40%; inhibition in vivo at 100 mg/kg [8]: 40%
17 | COc1cc(-c2nc(C)cc(Nc3ccc(C(=O)N4CCOCC4)cc3)n2)cc(OC)c1OC [72 536] | 0% |  |  | inhibition in vivo at 100 mg/kg [7]: 35%; inhibition in vivo at 100 mg/kg [8]: 75%
18 | COc1cc(-c2nc(C)cc(Nc3ccc(C(N)=O)cc3)n2)cc(OC)c1OC [72 417] | 0% | 40% | 65% | 
19 | COc1cc(-c2nc(C)cc(Nc3ccc(C(=O)N4CCN(c5ccccc5)CC4)cc3)n2)cc(OC)c1OC [72 450] | 0% |  |  | activation at 1 µg/mL [3]: 85%; inhibition in vivo at 100 mg/kg [8]: 35%
20 | Cc1cc(Nc2ccc(C(N)=O)cc2)nc(-c2cccc(C(F)(F)F)c2)n1 [72 432] | 0% | 35% | 200% | inhibition in vivo at 100 mg/kg [7]: 45%; inhibition in vivo at 100 mg/kg [8]: 35%
